Results reported in the kinase profiling compilation of Christmann-Franck et al. (2016).

What follows are compounds tested on ARAF (human), P10398 [Y301D/Y302D] (assay: radiometric filter-binding kinase assay, Kinase HotSpot). Details: compound 0.5 µM; ATP 10 µM.
`O=C(Nc1ccc(Cl)cc1)c1ccccc1NCc1ccncc1` showed a residual activity of 91.4%.
`Oc1ccc(-c2nc(-c3ccc(F)cc3)c(-c3ccncc3)[nH]2)cc1` gave a residual activity of 31.1%.
`COc1cc2ncnc(Nc3ccc(F)c(Cl)c3)c2cc1OCCCN1CCOCC1` was tested, and the residual activity was 95.3%.

These compounds were tested against AURKC (human) (UniProt Q9UQB9) in the same assay as above. Details: compound 0.5 µM; ATP 10 µM.
Chain of AURKC (human) (Q9UQB9 whole entry, looked up): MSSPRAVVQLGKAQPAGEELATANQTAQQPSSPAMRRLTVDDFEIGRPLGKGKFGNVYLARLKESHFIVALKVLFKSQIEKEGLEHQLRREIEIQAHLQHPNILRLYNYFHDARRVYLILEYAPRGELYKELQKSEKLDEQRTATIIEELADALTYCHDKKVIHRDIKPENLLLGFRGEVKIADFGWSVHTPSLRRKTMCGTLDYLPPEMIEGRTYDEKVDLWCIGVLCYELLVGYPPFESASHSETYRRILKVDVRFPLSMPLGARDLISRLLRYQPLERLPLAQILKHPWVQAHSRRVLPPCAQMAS
For `O=C(Nc1ccc(Cl)cc1)c1ccccc1NCc1ccncc1`, the residual activity was 93.4%.
In the case of `Oc1ccc(-c2nc(-c3ccc(F)cc3)c(-c3ccncc3)[nH]2)cc1`, the residual activity is reported as 94.2%.
`COc1cc2ncnc(Nc3ccc(F)c(Cl)c3)c2cc1OCCCN1CCOCC1` gave a residual activity of 89.7%.
`COc1ccc(-c2cnc3c(-c4ccsc4)cnn3c2)cc1` was tested, and the residual activity was 75.3%.

The compounds below were run against BLK (human) (UniProt P51451) in the same assay as above. Details: compound 0.5 µM; ATP 10 µM.
With `O=C(Nc1ccc(Cl)cc1)c1ccccc1NCc1ccncc1` the residual activity was 102%.
`Oc1ccc(-c2nc(-c3ccc(F)cc3)c(-c3ccncc3)[nH]2)cc1` gave a residual activity of 101%.
For `COc1cc2ncnc(Nc3ccc(F)c(Cl)c3)c2cc1OCCCN1CCOCC1`, the residual activity was 87.7%.
`COc1ccc(-c2cnc3c(-c4ccsc4)cnn3c2)cc1` showed a residual activity of 83.5%.

What follows are compounds tested against BRAF (human) (UniProt P15056) in the same assay as above. Details: compound 0.5 µM; ATP 10 µM.
`O=C(Nc1ccc(Cl)cc1)c1ccccc1NCc1ccncc1` was tested, and the residual activity was 90%.
In the case of `Oc1ccc(-c2nc(-c3ccc(F)cc3)c(-c3ccncc3)[nH]2)cc1`, the residual activity is reported as 60.5%.
`COc1cc2ncnc(Nc3ccc(F)c(Cl)c3)c2cc1OCCCN1CCOCC1` showed a residual activity of 95.8%.
With `COc1ccc(-c2cnc3c(-c4ccsc4)cnn3c2)cc1` the residual activity was 85.9%.

These compounds were tested against CAMK4 (human) (UniProt Q16566) in the same assay as above. Details: compound 0.5 µM; ATP 10 µM.
Chain of CAMK4 (human) (Q16566 whole entry, looked up): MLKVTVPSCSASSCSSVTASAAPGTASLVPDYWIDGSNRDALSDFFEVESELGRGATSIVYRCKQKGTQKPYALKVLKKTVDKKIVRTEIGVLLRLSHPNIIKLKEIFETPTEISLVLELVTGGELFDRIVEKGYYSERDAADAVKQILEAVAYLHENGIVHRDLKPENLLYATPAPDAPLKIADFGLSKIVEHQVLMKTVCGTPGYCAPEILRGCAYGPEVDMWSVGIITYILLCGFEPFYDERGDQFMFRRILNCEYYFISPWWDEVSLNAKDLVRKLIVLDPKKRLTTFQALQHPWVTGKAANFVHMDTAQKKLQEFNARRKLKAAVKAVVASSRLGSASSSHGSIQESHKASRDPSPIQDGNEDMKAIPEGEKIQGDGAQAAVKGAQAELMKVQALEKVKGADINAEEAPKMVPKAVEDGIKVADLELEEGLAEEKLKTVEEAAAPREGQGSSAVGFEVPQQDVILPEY
With `O=C(Nc1ccc(Cl)cc1)c1ccccc1NCc1ccncc1` the residual activity was 101%.
`Oc1ccc(-c2nc(-c3ccc(F)cc3)c(-c3ccncc3)[nH]2)cc1` showed a residual activity of 102%.
With `COc1cc2ncnc(Nc3ccc(F)c(Cl)c3)c2cc1OCCCN1CCOCC1` the residual activity was 93.3%.
Compound `COc1ccc(-c2cnc3c(-c4ccsc4)cnn3c2)cc1` has a residual activity of 98.4%.

The compounds below were run against CDK2 CCNA2 (human) (UniProt P24941+P20248) in the same assay as above. Details: compound 0.5 µM; ATP 10 µM.
Chain of CDK2 CCNA2 (human) (P20248 whole entry, looked up, other chains not shown): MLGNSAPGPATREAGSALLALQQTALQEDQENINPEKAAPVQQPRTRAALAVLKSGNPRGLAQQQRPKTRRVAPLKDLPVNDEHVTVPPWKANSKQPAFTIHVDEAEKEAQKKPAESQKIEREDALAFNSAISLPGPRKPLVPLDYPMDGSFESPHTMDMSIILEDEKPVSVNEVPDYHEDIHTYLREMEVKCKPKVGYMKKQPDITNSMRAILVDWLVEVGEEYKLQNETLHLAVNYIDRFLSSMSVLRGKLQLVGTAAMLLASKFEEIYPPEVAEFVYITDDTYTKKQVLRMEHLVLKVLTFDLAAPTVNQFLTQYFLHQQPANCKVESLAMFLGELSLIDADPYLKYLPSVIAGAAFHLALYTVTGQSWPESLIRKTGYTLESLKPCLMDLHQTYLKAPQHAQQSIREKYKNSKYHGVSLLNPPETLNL
Compound `O=C(Nc1ccc(Cl)cc1)c1ccccc1NCc1ccncc1` has a residual activity of 92.2%.
`Oc1ccc(-c2nc(-c3ccc(F)cc3)c(-c3ccncc3)[nH]2)cc1` was tested, and the residual activity was 101%.
For `COc1cc2ncnc(Nc3ccc(F)c(Cl)c3)c2cc1OCCCN1CCOCC1`, the residual activity was 95.9%.
`COc1ccc(-c2cnc3c(-c4ccsc4)cnn3c2)cc1` showed a residual activity of 83%.

These compounds were tested against CDK9 CCNT1 (human) (UniProt P50750+O60563) in the same assay as above. Details: compound 0.5 µM; ATP 10 µM.
With `O=C(Nc1ccc(Cl)cc1)c1ccccc1NCc1ccncc1` the residual activity was 81.9%.
Work on `Oc1ccc(-c2nc(-c3ccc(F)cc3)c(-c3ccncc3)[nH]2)cc1` yielded a residual activity of 83.4%.
`COc1cc2ncnc(Nc3ccc(F)c(Cl)c3)c2cc1OCCCN1CCOCC1` showed a residual activity of 87.3%.
`COc1ccc(-c2cnc3c(-c4ccsc4)cnn3c2)cc1` was tested, and the residual activity was 73.8%.

The compounds below were run against CHEK1 (human) (UniProt O14757) in the same assay as above. Details: compound 0.5 µM; ATP 10 µM.
Chain of CHEK1 (human) (O14757 whole entry, looked up): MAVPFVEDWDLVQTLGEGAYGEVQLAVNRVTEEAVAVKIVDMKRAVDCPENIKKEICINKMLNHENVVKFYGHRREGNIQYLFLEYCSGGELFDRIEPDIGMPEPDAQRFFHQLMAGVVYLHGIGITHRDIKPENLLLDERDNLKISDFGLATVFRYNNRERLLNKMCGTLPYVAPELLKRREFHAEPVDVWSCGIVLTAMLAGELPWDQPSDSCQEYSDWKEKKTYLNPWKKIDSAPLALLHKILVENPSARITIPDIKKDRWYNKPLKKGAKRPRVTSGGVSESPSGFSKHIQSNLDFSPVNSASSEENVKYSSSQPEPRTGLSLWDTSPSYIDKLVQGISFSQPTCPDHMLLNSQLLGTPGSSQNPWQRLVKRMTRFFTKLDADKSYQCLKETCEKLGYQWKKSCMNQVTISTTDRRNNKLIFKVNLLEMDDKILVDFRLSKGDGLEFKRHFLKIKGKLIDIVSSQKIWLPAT
Compound `O=C(Nc1ccc(Cl)cc1)c1ccccc1NCc1ccncc1` has a residual activity of 96.4%.
With `Oc1ccc(-c2nc(-c3ccc(F)cc3)c(-c3ccncc3)[nH]2)cc1` the residual activity was 98.9%.
For `COc1cc2ncnc(Nc3ccc(F)c(Cl)c3)c2cc1OCCCN1CCOCC1`, the residual activity was 95.3%.
With `COc1ccc(-c2cnc3c(-c4ccsc4)cnn3c2)cc1` the residual activity was 90.8%.

The compounds below were run against CLK3 (human) (UniProt P49761) in the same assay as above. Details: compound 0.5 µM; ATP 10 µM.
`O=C(Nc1ccc(Cl)cc1)c1ccccc1NCc1ccncc1` showed a residual activity of 98.1%.
`Oc1ccc(-c2nc(-c3ccc(F)cc3)c(-c3ccncc3)[nH]2)cc1` was tested, and the residual activity was 101%.
Work on `COc1cc2ncnc(Nc3ccc(F)c(Cl)c3)c2cc1OCCCN1CCOCC1` yielded a residual activity of 106%.
With `COc1ccc(-c2cnc3c(-c4ccsc4)cnn3c2)cc1` the residual activity was 100%.

Each compound was assayed against CSK (human) (UniProt P41240) in the same assay as above. Details: compound 0.5 µM; ATP 10 µM.
Chain of CSK (human) (P41240 whole entry, looked up): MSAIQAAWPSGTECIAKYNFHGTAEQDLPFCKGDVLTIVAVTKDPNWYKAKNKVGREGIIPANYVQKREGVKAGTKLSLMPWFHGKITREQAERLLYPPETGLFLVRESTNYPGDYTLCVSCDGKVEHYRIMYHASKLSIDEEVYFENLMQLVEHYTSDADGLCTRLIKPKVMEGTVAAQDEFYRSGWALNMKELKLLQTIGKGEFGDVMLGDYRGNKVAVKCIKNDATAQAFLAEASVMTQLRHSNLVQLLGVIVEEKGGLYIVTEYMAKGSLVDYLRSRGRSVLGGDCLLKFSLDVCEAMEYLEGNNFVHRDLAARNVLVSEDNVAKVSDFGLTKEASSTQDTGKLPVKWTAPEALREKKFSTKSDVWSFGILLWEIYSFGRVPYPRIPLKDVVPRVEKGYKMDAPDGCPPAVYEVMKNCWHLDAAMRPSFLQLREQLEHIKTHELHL
`O=C(Nc1ccc(Cl)cc1)c1ccccc1NCc1ccncc1` showed a residual activity of 101%.
Compound `Oc1ccc(-c2nc(-c3ccc(F)cc3)c(-c3ccncc3)[nH]2)cc1` has a residual activity of 93.7%.
`COc1cc2ncnc(Nc3ccc(F)c(Cl)c3)c2cc1OCCCN1CCOCC1` showed a residual activity of 95.4%.
With `COc1ccc(-c2cnc3c(-c4ccsc4)cnn3c2)cc1` the residual activity was 95.3%.

What follows are compounds tested against CSNK2A2 (human) (UniProt P19784) in the same assay as above. Details: compound 0.5 µM; ATP 10 µM.
Chain of CSNK2A2 (human) (P19784 whole entry, looked up): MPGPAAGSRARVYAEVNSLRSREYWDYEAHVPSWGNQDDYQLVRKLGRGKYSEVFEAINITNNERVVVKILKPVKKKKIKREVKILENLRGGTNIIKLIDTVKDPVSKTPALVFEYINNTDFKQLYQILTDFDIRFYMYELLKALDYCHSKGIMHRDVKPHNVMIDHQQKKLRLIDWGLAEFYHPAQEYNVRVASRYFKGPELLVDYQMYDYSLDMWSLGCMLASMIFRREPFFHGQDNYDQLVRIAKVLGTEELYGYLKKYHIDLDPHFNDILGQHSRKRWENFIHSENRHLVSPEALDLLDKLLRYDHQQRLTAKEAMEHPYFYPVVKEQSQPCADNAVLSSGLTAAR
With `O=C(Nc1ccc(Cl)cc1)c1ccccc1NCc1ccncc1` the residual activity was 98.3%.
With `Oc1ccc(-c2nc(-c3ccc(F)cc3)c(-c3ccncc3)[nH]2)cc1` the residual activity was 95.9%.
Work on `COc1cc2ncnc(Nc3ccc(F)c(Cl)c3)c2cc1OCCCN1CCOCC1` yielded a residual activity of 88.6%.
`COc1ccc(-c2cnc3c(-c4ccsc4)cnn3c2)cc1` was tested, and the residual activity was 87.3%.

What follows are compounds tested against DMPK (human) (UniProt Q09013) in the same assay as above. Details: compound 0.5 µM; ATP 10 µM.
Chain of DMPK (human) (Q09013 whole entry, looked up): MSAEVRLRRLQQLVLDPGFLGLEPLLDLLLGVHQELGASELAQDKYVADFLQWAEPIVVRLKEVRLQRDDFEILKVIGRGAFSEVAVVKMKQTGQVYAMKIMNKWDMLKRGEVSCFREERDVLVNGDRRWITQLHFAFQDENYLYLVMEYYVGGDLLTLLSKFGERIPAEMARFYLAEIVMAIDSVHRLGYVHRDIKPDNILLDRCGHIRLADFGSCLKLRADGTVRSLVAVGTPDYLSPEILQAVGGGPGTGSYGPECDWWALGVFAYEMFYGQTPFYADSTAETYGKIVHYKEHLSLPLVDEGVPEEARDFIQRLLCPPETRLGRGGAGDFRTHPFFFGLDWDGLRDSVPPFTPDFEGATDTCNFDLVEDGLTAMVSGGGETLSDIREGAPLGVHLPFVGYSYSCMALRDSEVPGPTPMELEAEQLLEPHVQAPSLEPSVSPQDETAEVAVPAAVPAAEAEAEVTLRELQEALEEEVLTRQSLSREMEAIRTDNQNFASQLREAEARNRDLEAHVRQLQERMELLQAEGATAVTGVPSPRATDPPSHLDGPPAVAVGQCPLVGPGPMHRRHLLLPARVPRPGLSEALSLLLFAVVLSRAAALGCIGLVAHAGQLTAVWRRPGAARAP
In the case of `O=C(Nc1ccc(Cl)cc1)c1ccccc1NCc1ccncc1`, the residual activity is reported as 103%.
In the case of `Oc1ccc(-c2nc(-c3ccc(F)cc3)c(-c3ccncc3)[nH]2)cc1`, the residual activity is reported as 106%.
`COc1cc2ncnc(Nc3ccc(F)c(Cl)c3)c2cc1OCCCN1CCOCC1` showed a residual activity of 90.1%.
Work on `COc1ccc(-c2cnc3c(-c4ccsc4)cnn3c2)cc1` yielded a residual activity of 100%.

These compounds were tested against DYRK1A (human) (UniProt Q13627) in the same assay as above. Details: compound 0.5 µM; ATP 10 µM.
Work on `O=C(Nc1ccc(Cl)cc1)c1ccccc1NCc1ccncc1` yielded a residual activity of 97.1%.
`Oc1ccc(-c2nc(-c3ccc(F)cc3)c(-c3ccncc3)[nH]2)cc1` was tested, and the residual activity was 99.6%.
In the case of `COc1cc2ncnc(Nc3ccc(F)c(Cl)c3)c2cc1OCCCN1CCOCC1`, the residual activity is reported as 101%.
Work on `COc1ccc(-c2cnc3c(-c4ccsc4)cnn3c2)cc1` yielded a residual activity of 69.7%.

The compounds below were run against EGFR (human) (UniProt P00533) in the same assay as above. Details: compound 0.5 µM; ATP 10 µM.
In the case of `COc1ccc(-c2cnc3c(-c4ccsc4)cnn3c2)cc1`, the residual activity is reported as 92.3%.

The compounds below were run against EPHA4 (human) (UniProt P54764) in the same assay as above. Details: compound 0.5 µM; ATP 10 µM.
Compound `O=C(Nc1ccc(Cl)cc1)c1ccccc1NCc1ccncc1` has a residual activity of 96.5%.
`Oc1ccc(-c2nc(-c3ccc(F)cc3)c(-c3ccncc3)[nH]2)cc1` gave a residual activity of 96.2%.
`COc1cc2ncnc(Nc3ccc(F)c(Cl)c3)c2cc1OCCCN1CCOCC1` was tested, and the residual activity was 90.2%.
In the case of `COc1ccc(-c2cnc3c(-c4ccsc4)cnn3c2)cc1`, the residual activity is reported as 87.6%.

These compounds were tested against EPHA6 (human) (UniProt Q9UF33) in the same assay as above. Details: compound 0.5 µM; ATP 10 µM.
Compound `O=C(Nc1ccc(Cl)cc1)c1ccccc1NCc1ccncc1` has a residual activity of 89.8%.
`Oc1ccc(-c2nc(-c3ccc(F)cc3)c(-c3ccncc3)[nH]2)cc1` gave a residual activity of 57.3%.
In the case of `COc1cc2ncnc(Nc3ccc(F)c(Cl)c3)c2cc1OCCCN1CCOCC1`, the residual activity is reported as 28.9%.
In the case of `COc1ccc(-c2cnc3c(-c4ccsc4)cnn3c2)cc1`, the residual activity is reported as 85.1%.

Each compound was assayed against EPHB1 (human) (UniProt P54762) in the same assay as above. Details: compound 0.5 µM; ATP 10 µM.
`O=C(Nc1ccc(Cl)cc1)c1ccccc1NCc1ccncc1` gave a residual activity of 90.2%.
`Oc1ccc(-c2nc(-c3ccc(F)cc3)c(-c3ccncc3)[nH]2)cc1` gave a residual activity of 96.8%.
With `COc1cc2ncnc(Nc3ccc(F)c(Cl)c3)c2cc1OCCCN1CCOCC1` the residual activity was 94.8%.
`COc1ccc(-c2cnc3c(-c4ccsc4)cnn3c2)cc1` gave a residual activity of 83.1%.

The compounds below were run against HIPK3 (human) (UniProt Q9H422) in the same assay as above. Details: compound 0.5 µM; ATP 10 µM.
Chain of HIPK3 (human) (Q9H422 whole entry, looked up): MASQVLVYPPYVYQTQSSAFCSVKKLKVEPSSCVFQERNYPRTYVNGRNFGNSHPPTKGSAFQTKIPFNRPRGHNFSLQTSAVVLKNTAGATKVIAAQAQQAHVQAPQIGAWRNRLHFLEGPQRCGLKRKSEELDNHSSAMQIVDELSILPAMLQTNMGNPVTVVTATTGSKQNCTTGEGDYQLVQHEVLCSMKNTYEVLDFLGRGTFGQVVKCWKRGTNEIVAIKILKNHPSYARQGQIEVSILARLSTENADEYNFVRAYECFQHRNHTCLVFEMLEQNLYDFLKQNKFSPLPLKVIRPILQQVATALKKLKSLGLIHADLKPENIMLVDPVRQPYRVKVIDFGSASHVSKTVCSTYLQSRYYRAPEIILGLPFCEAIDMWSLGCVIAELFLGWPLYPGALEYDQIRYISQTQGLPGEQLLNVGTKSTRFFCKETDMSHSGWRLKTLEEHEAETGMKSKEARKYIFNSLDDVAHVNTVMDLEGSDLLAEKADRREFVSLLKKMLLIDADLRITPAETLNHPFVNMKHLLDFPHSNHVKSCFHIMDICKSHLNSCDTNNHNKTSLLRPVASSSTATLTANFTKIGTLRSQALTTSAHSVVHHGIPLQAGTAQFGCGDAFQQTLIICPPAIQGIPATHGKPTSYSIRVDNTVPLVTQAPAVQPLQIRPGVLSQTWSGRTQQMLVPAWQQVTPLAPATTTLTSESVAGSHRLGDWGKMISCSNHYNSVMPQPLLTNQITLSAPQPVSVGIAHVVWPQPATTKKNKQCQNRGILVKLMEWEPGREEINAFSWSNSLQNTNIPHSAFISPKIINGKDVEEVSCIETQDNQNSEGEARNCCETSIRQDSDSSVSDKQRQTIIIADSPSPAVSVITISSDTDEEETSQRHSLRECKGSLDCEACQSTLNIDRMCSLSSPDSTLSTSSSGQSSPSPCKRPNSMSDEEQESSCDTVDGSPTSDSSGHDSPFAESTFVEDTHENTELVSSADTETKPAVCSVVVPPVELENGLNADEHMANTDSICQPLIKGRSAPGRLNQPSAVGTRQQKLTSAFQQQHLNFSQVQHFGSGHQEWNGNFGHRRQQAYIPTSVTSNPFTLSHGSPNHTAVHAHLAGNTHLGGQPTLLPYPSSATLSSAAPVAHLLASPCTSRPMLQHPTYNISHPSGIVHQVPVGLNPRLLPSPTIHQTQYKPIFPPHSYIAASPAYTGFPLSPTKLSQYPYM
`O=C(Nc1ccc(Cl)cc1)c1ccccc1NCc1ccncc1` was tested, and the residual activity was 98.7%.
For `Oc1ccc(-c2nc(-c3ccc(F)cc3)c(-c3ccncc3)[nH]2)cc1`, the residual activity was 98.3%.
`COc1cc2ncnc(Nc3ccc(F)c(Cl)c3)c2cc1OCCCN1CCOCC1` gave a residual activity of 103%.
In the case of `COc1ccc(-c2cnc3c(-c4ccsc4)cnn3c2)cc1`, the residual activity is reported as 103%.

The compounds below were run against IRAK4 (human) (UniProt Q9NWZ3) in the same assay as above. Details: compound 0.5 µM; ATP 10 µM.
In the case of `O=C(Nc1ccc(Cl)cc1)c1ccccc1NCc1ccncc1`, the residual activity is reported as 104%.
In the case of `Oc1ccc(-c2nc(-c3ccc(F)cc3)c(-c3ccncc3)[nH]2)cc1`, the residual activity is reported as 124%.
For `COc1cc2ncnc(Nc3ccc(F)c(Cl)c3)c2cc1OCCCN1CCOCC1`, the residual activity was 78.8%.
In the case of `COc1ccc(-c2cnc3c(-c4ccsc4)cnn3c2)cc1`, the residual activity is reported as 82.1%.

These compounds were tested against ITK (human) (UniProt Q08881) in the same assay as above. Details: compound 0.5 µM; ATP 10 µM.
Chain of ITK (human) (Q08881 whole entry, looked up): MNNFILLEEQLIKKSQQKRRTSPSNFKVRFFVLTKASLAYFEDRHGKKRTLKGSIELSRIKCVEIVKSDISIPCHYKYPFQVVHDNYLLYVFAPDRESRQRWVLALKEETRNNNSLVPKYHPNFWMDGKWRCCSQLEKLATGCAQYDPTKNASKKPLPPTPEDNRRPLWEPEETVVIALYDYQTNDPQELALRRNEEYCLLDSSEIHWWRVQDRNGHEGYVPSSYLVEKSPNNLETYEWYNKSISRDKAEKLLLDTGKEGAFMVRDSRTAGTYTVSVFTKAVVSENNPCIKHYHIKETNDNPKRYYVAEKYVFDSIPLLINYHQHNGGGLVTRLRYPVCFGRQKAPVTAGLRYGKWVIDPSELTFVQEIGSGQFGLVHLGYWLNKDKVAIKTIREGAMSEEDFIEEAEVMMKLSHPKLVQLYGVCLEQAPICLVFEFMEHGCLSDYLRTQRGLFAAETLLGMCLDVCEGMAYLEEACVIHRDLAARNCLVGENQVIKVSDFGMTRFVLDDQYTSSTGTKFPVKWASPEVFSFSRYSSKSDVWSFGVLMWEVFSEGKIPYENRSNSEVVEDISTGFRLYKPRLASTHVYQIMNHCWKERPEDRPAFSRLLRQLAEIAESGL
For `O=C(Nc1ccc(Cl)cc1)c1ccccc1NCc1ccncc1`, the residual activity was 94.1%.
For `Oc1ccc(-c2nc(-c3ccc(F)cc3)c(-c3ccncc3)[nH]2)cc1`, the residual activity was 90.9%.
With `COc1cc2ncnc(Nc3ccc(F)c(Cl)c3)c2cc1OCCCN1CCOCC1` the residual activity was 99.9%.
Compound `COc1ccc(-c2cnc3c(-c4ccsc4)cnn3c2)cc1` has a residual activity of 95.2%.

Each compound was assayed against MAP3K14 (human) (UniProt Q99558) in the same assay as above. Details: compound 0.5 µM; ATP 10 µM.
`O=C(Nc1ccc(Cl)cc1)c1ccccc1NCc1ccncc1` gave a residual activity of 114%.
`Oc1ccc(-c2nc(-c3ccc(F)cc3)c(-c3ccncc3)[nH]2)cc1` was tested, and the residual activity was 115%.
Compound `COc1cc2ncnc(Nc3ccc(F)c(Cl)c3)c2cc1OCCCN1CCOCC1` has a residual activity of 104%.
`COc1ccc(-c2cnc3c(-c4ccsc4)cnn3c2)cc1` showed a residual activity of 106%.

Each compound was assayed against MAP3K8 (human) (UniProt P41279) in the same assay as above. Details: compound 0.5 µM; ATP 10 µM.
`O=C(Nc1ccc(Cl)cc1)c1ccccc1NCc1ccncc1` showed a residual activity of 105%.
